Laboratory results as given in US20080200454A1, “CARBON-LINKED TETRAHYDRO-PYRAZOLO-PYRIDINE MODULATORS OF CATHEPSIN S” (priority 2007, published 2008).

Each compound was assayed against Recombinant human cathepsin S (CatS) (Homo sapiens, UniProt P25774) (assay: Recombinant human cathepsin S (CatS) inhibition assay, fluorogenic substrate Z-Valine-Valine-Arginine-AMC). Settings: not given.
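Further: Baculovirus-expressed CatS in pH 5.0 sodium acetate buffer with DTT and NaCl, fluorescence read each minute over 20 min, inhibition derived from rate slope.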

Recombinant human cathepsin S (CatS), sequence (P25774 115-331): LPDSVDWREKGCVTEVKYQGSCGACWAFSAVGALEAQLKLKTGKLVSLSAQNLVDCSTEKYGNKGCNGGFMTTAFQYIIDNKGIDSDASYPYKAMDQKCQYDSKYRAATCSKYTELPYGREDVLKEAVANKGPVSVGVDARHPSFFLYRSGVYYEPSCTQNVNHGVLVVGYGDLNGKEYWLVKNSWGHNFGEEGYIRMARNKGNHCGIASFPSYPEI

**Q.** With `CS(=O)(=O)N1CCc2c(c(-c3ccc(Cl)c(C#CCNS(=O)(=O)c4ccccc4)c3)nn2CCCN2CCOCC2)C1` [Example 54, N-(3-{2-Chloro-5-[5-methanesulfonyl-1-(3-morpholin-4-yl-propyl)-4,5,6,7-tetrahydro-1H-pyrazolo[4,3-c]pyridin-3-yl]-phenyl]-prop-2-ynyl)-benzenesulfonamide] as the compound, how does the IC50 read?
**A.** 7050 nM

**Q.** How did the IC50 turn out when `C[C@H]1COCCN1CCCn1nc(-c2ccc(Cl)c(C#Cc3ccc(Cl)c(C(=O)NCC4CCCNC4)c3)c2)c2c1CCN(C(=O)C(N)=O)C2` (stereo partly drawn) [Example 587, 5-{[5-(5-[Amino(oxo)acetyl]-1-{3-[(3S)-3-methylmorpholin-4-yl]propyl}-4,5,6,7-tetrahydro-1H-pyrazolo[4,3-c]pyridin-3-yl)-2-chlorophenyl]ethynyl}-2-chloro-N-(piperidin-3-ylmethyl)benzamide] was run?
**A.** 20 nM

**Q.** For `CC(NCc1ccc(C#Cc2cc(-c3nn(CCCN4CCN(c5ccccc5)CC4)c4c3CN(S(C)(=O)=O)CC4)ccc2Cl)cc1)c1ccccc1` (stereo not shown) [Example 478, N-({4-[(2-Chloro-5-{5-(methylsulfonyl)-1-[3-(4-phenylpiperazin-1-yl)propyl]-4,5,6,7-tetrahydro-1H-pyrazolo[4,3-c]pyridin-3-yl}phenyl)ethynyl]phenyl}methyl)-1-phenylethanamine], which IC50 is on record?
**A.** 40 nM

**Q.** With `NC(=O)N1CCc2c(c(-c3ccc(Cl)c(C#Cc4ccc(COCc5cccnc5)cc4)c3)nn2CCCN2CCSCC2)C1` [Example 161, 3-{4-Chloro-3-[(4-{[(pyridin-3-ylmethyl)oxy]methyl]phenyl)ethynyl]phenyl}-1-(3-thiomorpholin-4-ylpropyl)-1,4,6,7-tetrahydro-5H-pyrazolo[4,3-c]pyridine-5-carboxamide] as the compound, how does the IC50 read?
**A.** 70 nM

**Q.** `CS(=O)(=O)N1CCc2c(c(-c3ccc(Cl)c(C#Cc4ccc(CCC(=O)O)cc4)c3)nn2CCCN2CCOCC2)C1` [Example 9, 3-(4-{2-Chloro-5-[5-methanesulfonyl-1-(3-morpholin-4-yl-propyl)-4,5,6,7-tetrahydro-1H-pyrazolo[4,3-c]pyridin-3-yl]-phenylethynyl}-phenyl)-propionic acid] was tested. Which IC50 did it give?
**A.** 160 nM

**Q.** `CC1CCCN(CCCc2cc(-c3nn(CCCN4CCC(N5CCCC5=O)CC4)c4c3CN(S(C)(=O)=O)CC4)ccc2Cl)C1` (stereo not shown) [Example 103, 1-{1-[3-(3-{4-Chloro-3-[3-(3-methyl-piperidin-1-yl)-propyl]-phenyl}-5-methanesulfonyl-4,5,6,7-tetrahydro-pyrazolo[4,3-c]pyridin-1-yl)-propyl]-piperidin-4-yl}-pyrrolidin-2-one] was tested. Which IC50 did it give?
**A.** 310 nM

**Q.** With `CS(=O)(=O)NCCCc1cc(-c2nn(CCCN3CCOCC3)c3c2CN(S(C)(=O)=O)CC3)ccc1Cl` [Example 80, N-(3-{2-Chloro-5-[5-methanesulfonyl-1-(3-morpholin-4-yl-propyl)-4,5,6,7-tetrahydro-1H-pyrazolo[4,3-c]pyridin-3-yl]-phenyl}-propyl)-methanesulfonamide] as the compound, how does the IC50 read?
**A.** 9930 nM

**Q.** With `NC(=O)N1CCc2c(c(-c3ccc(Cl)c(C#Cc4ccc(Cl)cc4)c3)nn2CCCN2CCOCC2)C1` [Example 144, 3-[4-Chloro-3-(4-chloro-phenylethynyl)-phenyl]-1-(3-morpholin-4-yl-propyl)-1,4,6,7-tetrahydro-pyrazolo[4,3-c]pyridine-5-carboxylic acid amide] as the compound, how does the IC50 read?
**A.** 60 nM

**Q.** Which IC50 does the source give for `CS(=O)(=O)N1CCc2c(c(-c3ccc(Cl)c(C#Cc4ccc(CN[C@@H]5CCCc6ccccc65)cc4)c3)nn2CCCN2CCOCC2)C1` [Example 444, (1R)—N-{[4-({2-Chloro-5-[5-(methylsulfonyl)-1-(3-morpholin-4-ylpropyl)-4,5,6,7-tetrahydro-1H-pyrazolo[4,3-c]pyridin-3-yl]phenyl}ethynyl)phenyl]methyl}-1,2,3,4-tetrahydronaphthalen-1-amine] here?
**A.** 210 nM

**Q.** For `NC(=O)C(=O)N1CCc2c(c(-c3ccc(Cl)c(C#Cc4ccc(CNCc5ccc(Cl)cc5)cc4)c3)nn2CCCN2CCCCC2)C1` [Example 449, 2-[3-(4-Chloro-3-{[4-({[(4-chlorophenyl)methyl]amino}methyl)phenyl]ethynyl}phenyl)-1-(3-piperidin-1-ylpropyl)-1,4,6,7-tetrahydro-5H-pyrazolo[4,3-c]pyridin-5-yl]-2-oxoacetamide], which IC50 is on record?
**A.** 100 nM

**Q.** For `CN1CCc2ccc(C#Cc3cc(-c4nn(CCCN5CCN(c6ccccc6)CC5)c5c4CN(S(C)(=O)=O)CC5)ccc3Cl)cc2C1` [Example 226, 7-[(2-Chloro-5-{5-(methylsulfonyl)-1-[3-(4-phenylpiperazin-1-yl)propyl]-4,5,6,7-tetrahydro-1H-pyrazolo[4,3-c]pyridin-3-yl}phenyl)ethynyl]-2-methyl-1,2,3,4-tetrahydroisoquinoline], which IC50 is on record?
**A.** 30 nM

**Q.** With `C[C@H]1COCCN1CCCn1nc(-c2ccc(Cl)c(C#Cc3ccc(Cl)c(CNCc4ccccc4)c3)c2)c2c1CCN(C(=O)C(N)=O)C2` [Example 285, 2-(3-{4-Chloro-3-[(4-chloro-3-{[(phenylmethyl)amino]methyl}phenyl)ethynyl]phenyl}-1-{3-[(3S)-3-methylmorpholin-4-yl]propyl}-1,4,6,7-tetrahydro-5H-pyrazolo[4,3-c]pyridin-5-yl)-2-oxoacetamide] as the compound, how does the IC50 read?
**A.** 20 nM

**Q.** With `CS(=O)(=O)N1CCc2c(c(-c3ccc(Cl)c(C#Cc4ccc(Cl)cc4)c3)nn2CC(O)CN2CCCCC2)C1` (stereo not shown) [Example 125, 1-{3-[4-Chloro-3-(4-chloro-phenylethynyl)-phenyl]-5-methanesulfonyl-4,5,6,7-tetrahydro-pyrazolo[4,3-c]pyridin-1-yl}-3-piperidin-1-yl-propan-2-ol] as the compound, how does the IC50 read?
**A.** 80 nM

**Q.** How did the IC50 turn out when `CN(C)S(=O)(=O)NCCCc1cc(-c2nn(CCCN3CCOCC3)c3c2CN(S(C)(=O)=O)CC3)ccc1Cl` [Example 86] was run?
**A.** 13000 nM

**Q.** Which IC50 does the source give for `CS(=O)(=O)N1CCc2c(c(-c3ccc(Cl)c(C#Cc4ccc(CNCc5ccc(Cl)cc5)cc4)c3)nn2CC(O)CN2CCCCC2)C1` (stereo not shown) [Example 361, 1-[3-(4-Chloro-3-{[4-({[(4-chlorophenyl)methyl]amino}methyl)phenyl]ethynyl}phenyl)-5-(methylsulfonyl)-4,5,6,7-tetrahydro-1H-pyrazolo[4,3-c]pyridin-1-yl]-3-piperidin-1-ylpropan-2-ol] here?
**A.** 170 nM

**Q.** `NC(=O)C1CCN(CCCn2nc(-c3ccc(Cl)c(C#Cc4ccc(CNCc5ccc(Cl)cc5)cc4)c3)c3c2CCN(C(N)=O)C3)CC1` [Example 461, 1-{3-[4-(Aminocarbonyl)piperidin-1-yl]propyl}-3-(4-chloro-3-{[4-({[(4-chlorophenyl)methyl]amino}methyl)phenyl]ethynyl}phenyl)-1,4,6,7-tetrahydro-5H-pyrazolo[4,3-c]pyridine-5-carboxamide] was tested. Which IC50 did it give?
**A.** 30 nM

Same assay, conditions: CatS IC50

**Q.** With `COc1ccc(C#Cc2cc(-c3nn(CCCN4CCOCC4)c4c3CN(S(C)(=O)=O)CC4)ccc2Cl)cc1` [Example 32, 3-[4-Chloro-3-(4-methoxy-phenylethynyl)-phenyl]-5-methanesulfonyl-1-(3-morpholin-4-yl-propyl)-4,5,6,7-tetrahydro-1H-pyrazolo[4,3-c]pyridine] as the compound, how does the IC50 read?
**A.** 490 nM

**Q.** Which IC50 does the source give for `NC(=O)C(=O)N1CCc2c(c(-c3ccc(Cl)c(C#Cc4ccc(Cl)c(CNC5CCCC5)c4)c3)nn2CCCN2CCCCC2)C1` [Example 595, 2-{3-[4-Chloro-3-({4-chloro-3-[(cyclopentylamino)methyl]phenyl}ethynyl)phenyl]-1-(3-piperidin-1-ylpropyl)-1,4,6,7-tetrahydro-5H-pyrazolo[4,3-c]pyridin-5-yl}-2-oxoacetamide] here?
**A.** 10 nM

**Q.** How did the IC50 turn out when `CS(=O)(=O)N1CCc2c(c(-c3ccc(Cl)c(C#Cc4ccc(CNCc5ccc(Cl)cc5)cc4)c3)nn2CCCN2CCCNCC2)C1` [Example 391, 1-{4-[(2-Chloro-5-{1-[3-(1,4-diazepan-1-yl)propyl]-5-(methylsulfonyl)-4,5,6,7-tetrahydro-1H-pyrazolo[4,3-c]pyridin-3-yl}phenyl)ethynyl]phenyl}-N-[(4-chlorophenyl)methyl]methanamine] was run?
**A.** 260 nM

**Q.** How did the IC50 turn out when `O=C(CO)N1CCc2c(c(-c3ccc(Cl)c(C#Cc4ccc(CNCc5ccc(Cl)cc5)cc4)c3)nn2CCCN2CCSCC2)C1` [Example 413, 2-[3-(4-Chloro-3-{[4-({[(4-chlorophenyl)methyl]amino}methyl)phenyl]ethynyl}phenyl)-1-(3-thiomorpholin-4-ylpropyl)-1,4,6,7-tetrahydro-5H-pyrazolo[4,3-c]pyridin-5-yl]-2-oxoethanol] was run?
**A.** 100 nM

**Q.** `CN(Cc1ccccc1)Cc1cccc(C#Cc2cc(-c3nn(CCCN4CCOCC4)c4c3CN(S(C)(=O)=O)CC4)ccc2Cl)c1` [Example 528, 1-[3-({2-Chloro-5-[5-(methylsulfonyl)-1-(3-morpholin-4-ylpropyl)-4,5,6,7-tetrahydro-1H-pyrazolo[4,3-c]pyridin-3-yl]phenyl}ethynyl)phenyl]-N-methyl-N-(phenylmethyl)methanamine] was tested. Which IC50 did it give?
**A.** 580 nM

**Q.** How did the IC50 turn out when `C=CCN1CCc2cc(C#Cc3cc(-c4nn(CCCN5CCOCC5)c5c4CN(S(C)(=O)=O)CC5)ccc3Cl)ccc2C1` [Example 527, 6-({2-Chloro-5-[5-(methylsulfonyl)-1-(3-morpholin-4-ylpropyl)-4,5,6,7-tetrahydro-1H-pyrazolo[4,3-c]pyridin-3-yl]phenyl}ethynyl)-2-prop-2-en-1-yl-1,2,3,4-tetrahydroisoquinoline] was run?
**A.** 300 nM

**Q.** How did the IC50 turn out when `NC(=O)C(=O)N1CCc2c(c(-c3ccc(Cl)c(C#Cc4ccc(Cl)c(C(=O)N5CCCNCC5)c4)c3)nn2CCCN2CCSCC2)C1` [Example 569, 2-[3-(4-Chloro-3-{[4-chloro-3-(1,4-diazepan-1-ylcarbonyl)phenyl]ethynyl}phenyl)-1-(3-thiomorpholin-4-ylpropyl)-1,4,6,7-tetrahydro-5H-pyrazolo[4,3-c]pyridin-5-yl]-2-oxoacetamide] was run?
**A.** 150 nM

**Q.** Which IC50 does the source give for `CNCCCNC(=O)c1cc(C#Cc2cc(-c3nn(CCCN4CCSCC4)c4c3CN(C(=O)C(N)=O)CC4)ccc2Cl)ccc1Cl` [Example 565, 5-[(5-{5-[Amino(oxo)acetyl]-1-(3-thiomorpholin-4-ylpropyl)-4,5,6,7-tetrahydro-1H-pyrazolo[4,3-c]pyridin-3-yl}-2-chlorophenyl)ethynyl]-2-chloro-N-[3-(methylamino)propyl]benzamide] here?
**A.** 20 nM

**Q.** `CS(=O)(=O)N1CCc2c(c(-c3ccc(Cl)c(C#Cc4ccc(C(F)(F)F)cc4)c3)nn2CCCN2CCOCC2)C1` [Example 30, 3-[4-Chloro-3-(4-trifluoromethyl-phenylethynyl)-phenyl]-5-methanesulfonyl-1-(3-morpholin-4-yl-propyl)-4,5,6,7-tetrahydro-1H-pyrazolo[4,3-c]pyridine] was tested. Which IC50 did it give?
**A.** 430 nM
